“And” between values parts separate entries of the source, which are not always exact repeats. Equal values may be shown once. Where a name gives a salt, the structure may show the parent alone.
Assays:
[1] = target: Replicase polyprotein 1ab (Middle East respiratory syndrome-related coronavirus (isolate UnitedKingdom/H123990006/2012) (Betacoronavirus England 1) (Humancoronavirus EMC), UniProt K9N7C7); experiment: biochemical; assay type: functional
[2] = target: Replicase polyprotein 1ab (Middle East respiratory syndrome-related coronavirus (isolate UnitedKingdom/H123990006/2012) (Betacoronavirus England 1) (Humancoronavirus EMC)) (UniProt K9N7C7); details: at 10 µM
[3] = target: Chymotrypsin (Homo sapiens) (UniProt Q99895+P17538+P40313+Q6GPI1); experiment: Chymotrypsin inhibition percentage at 10 µM by FRET kind of response from peptide substrate; assay type: functional
Chain of Chymotrypsin (Homo sapiens) (Q6GPI1 whole entry, looked up, chain 1 of 4): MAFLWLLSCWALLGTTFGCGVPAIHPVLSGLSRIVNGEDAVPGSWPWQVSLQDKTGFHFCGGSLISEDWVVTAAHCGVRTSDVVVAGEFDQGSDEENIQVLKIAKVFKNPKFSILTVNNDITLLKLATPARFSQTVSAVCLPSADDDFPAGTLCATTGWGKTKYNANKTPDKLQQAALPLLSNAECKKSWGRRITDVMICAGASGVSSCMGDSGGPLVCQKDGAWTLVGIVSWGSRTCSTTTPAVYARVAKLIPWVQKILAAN
Chain of Chymotrypsin (Homo sapiens) (P40313 whole entry, looked up, chain 2 of 4): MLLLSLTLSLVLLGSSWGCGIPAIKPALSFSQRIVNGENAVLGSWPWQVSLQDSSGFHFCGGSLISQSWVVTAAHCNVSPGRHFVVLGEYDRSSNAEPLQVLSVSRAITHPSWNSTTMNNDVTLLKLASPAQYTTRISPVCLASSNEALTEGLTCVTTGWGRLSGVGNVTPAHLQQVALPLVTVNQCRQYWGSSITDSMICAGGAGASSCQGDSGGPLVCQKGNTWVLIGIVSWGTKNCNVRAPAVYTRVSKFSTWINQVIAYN
Chain of Chymotrypsin (Homo sapiens) (P17538 whole entry, looked up, chain 3 of 4): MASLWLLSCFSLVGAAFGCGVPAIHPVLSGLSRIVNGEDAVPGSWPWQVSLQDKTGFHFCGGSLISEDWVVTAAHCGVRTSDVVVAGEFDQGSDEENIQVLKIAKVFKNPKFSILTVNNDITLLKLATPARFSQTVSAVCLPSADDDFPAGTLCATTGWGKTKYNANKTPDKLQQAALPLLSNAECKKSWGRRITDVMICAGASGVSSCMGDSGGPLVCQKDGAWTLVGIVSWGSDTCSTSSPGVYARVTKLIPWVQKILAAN
Chain of Chymotrypsin (Homo sapiens) (Q99895 whole entry, looked up, chain 4 of 4): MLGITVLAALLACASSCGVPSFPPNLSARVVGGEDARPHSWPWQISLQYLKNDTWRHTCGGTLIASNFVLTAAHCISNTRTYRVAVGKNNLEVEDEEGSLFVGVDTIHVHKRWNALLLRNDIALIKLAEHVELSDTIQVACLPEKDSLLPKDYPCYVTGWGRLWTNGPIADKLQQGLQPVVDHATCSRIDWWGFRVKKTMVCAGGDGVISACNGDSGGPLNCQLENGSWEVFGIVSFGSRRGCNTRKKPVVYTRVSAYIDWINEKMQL

Chain of Replicase polyprotein 1ab (K9N7C7 3248-3553 limits assumed): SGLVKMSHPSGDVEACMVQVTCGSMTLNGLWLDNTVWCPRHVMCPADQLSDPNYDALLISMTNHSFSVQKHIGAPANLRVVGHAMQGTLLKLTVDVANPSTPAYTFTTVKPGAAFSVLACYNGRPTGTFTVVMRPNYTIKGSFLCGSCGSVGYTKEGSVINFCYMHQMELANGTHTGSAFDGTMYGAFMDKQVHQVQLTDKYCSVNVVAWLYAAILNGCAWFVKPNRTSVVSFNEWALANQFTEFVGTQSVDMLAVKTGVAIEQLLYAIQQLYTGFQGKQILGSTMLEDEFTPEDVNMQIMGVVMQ

| Molecule | IC50 [1] [µM] | inhibition [2] | inhibition [3] [%] | inhibition ([2]; tested as the Zn salt or complex) [%] | IC50 ([1]; tested as the Ag salt or complex) [µM] |
| --- | --- | --- | --- | --- | --- |
| O=C(O)c1ccc(SSc2ccc(C(=O)O)cn2)nc1 | > 10 | 8% |  |  |  |
| CN1CC[C@@]2(C)c3cc(O)ccc3N(C)[C@@H]12 | > 10 | 41% |  |  |  |
| O=C1C(Cl)=C(N2CCOCC2)C(=O)N1c1ccc(Cl)c(Cl)c1 | > 10 | 0% | 7.24 |  |  |
| CCC(=O)OCN1C(=O)C=CC1=O | > 10 | 0% |  |  |  |
| O=C1C=CC(=O)C2=C1C1c3ccccc3C2c2ccccc21 | > 10 | 45% |  |  |  |
| C=CC(=O)c1ccc2ccccc2c1 | > 10 | 26% |  |  |  |
| c1ccc2sc(SNC3CCCCC3)nc2c1 | > 10 | 0% |  |  |  |
| CCOC(=O)Cc1ccc(-c2ccccc2)cc1 | > 10 | 18% | -0.88 |  |  |
| COc1cccc(C(=O)CCN[C@@H](C)[C@H](O)c2ccccc2)c1 | > 10 | 19% |  |  |  |
| [O-][S+](c1ccccc1)c1ccc2nnnn2n1 (centres undefined) | 10.1 |  |  |  |  |
| Nc1cc2c3ccccc3ccc2c2ccccc12 | > 10 | 3% | -3.88 |  |  |
| Oc1c(I)cc(I)c(O)c1I | > 10 | 0% |  |  |  |
| Cc1ccccc1N(C)C(=O)c1ccc([S+]([O-])c2nccs2)c([N+](=O)[O-])c1 (centres undefined) | > 10 | 7% | 0.13 |  |  |
| N#CSc1cc(SC#N)c(N)nc1N | 2.3 |  | 4.59 |  |  |
| Oc1ccc2ccccc2c1SSc1c(O)ccc2ccccc12 | > 10 | 6% |  |  |  |
| CN(C)CCNc1nc2cc(O)ccc2c2c1C(=O)c1ccccc1-2 | > 10 | 0% |  |  |  |
| Oc1cc2c(cc1O)C(c1ccccc1)CNCC2 (centres undefined) | > 10 | 5% | 8.97 |  |  |
| O=[N+]([O-])c1cnc(Sc2nnc(O)n2-c2ccc3c(c2)OCCO3)s1 | 3.8 |  |  |  |  |
| Nc1nnc(Sc2ncc([N+](=O)[O-])s2)s1 | > 10 | 45% |  |  |  |
| CC[C@H](CO)Nc1nc(NCc2ccc(-c3ccccn3)cc2)c2ncn(C(C)C)c2n1 | > 10 | 4% |  |  |  |
| CC(C)N(CCC(=O)c1ccc2ccccc2c1)Cc1ccccc1 | 8.1 |  |  |  |  |
| CCCCCCNC(=O)n1cc(F)c(=O)[nH]c1=O |  |  | 14 |  |  |
| CCCCn1c(NC(=O)c2cccs2)c(C#N)c2nc3ccccc3nc21 |  |  | -3.7 |  |  |
| CCN1CCN(C(c2ccc(C(F)(F)F)cc2)c2ccc3cccnc3c2O)CC1 (centres undefined) |  |  | 3.72 |  |  |
| COC(=O)CC[C@H](NC(=O)[C@H](CC(=O)OC)NC(=O)OCc1ccccc1)C(=O)N[C@H](C(=O)N[C@@H](CC(=O)OC)C(=O)CF)C(C)C |  |  | 11.2 |  |  |

| Molecule | IC50 [1] [µM] | inhibition [2] | inhibition [3] [%] | inhibition ([2]; tested as the Zn salt or complex) [%] | IC50 ([1]; tested as the Ag salt or complex) [µM] |
| --- | --- | --- | --- | --- | --- |
| Cc1cc(C)cc(N2C(=O)CC(Sc3nc[nH]n3)C2=O)c1 (centres undefined) |  |  | 2.86 |  |  |
| Cc1ccc(C)c(-n2sc3cc(F)ccc3c2=O)c1 |  |  | -0.52 |  |  |
| Cn1sc(=O)n(Cc2ccccc2)c1=O |  |  | 4.03 |  |  |
| Nc1ccc(O)c2ncccc12 |  |  | 4.98 |  |  |
| O=C(CC1Sc2ncnn2C1=O)Nc1ccc(Br)cc1 (centres undefined) |  |  | 8.42 |  |  |
| O=C(CCl)c1ccccc1 |  |  | 7.75 |  |  |
| O=[N+]([O-])c1ccc(Sc2cccc[n+]2[O-])c2nonc12 |  |  | 4.87 |  |  |
| Oc1cc2c(cc1C(c1ccc(C(F)(F)F)cc1)N1CCOCC1)OCO2 (centres undefined) |  |  | 7.04 |  |  |
| [O-][n+]1ccccc1S |  |  | 8.11 | 42 |  |
| c1ccc2sc(SSc3nc4ccccc4s3)nc2c1 |  |  | 5.04 |  |  |
| Sc1nc2ccccc2s1 [2-MERCAPTOBENZOTHIAZOLE] | > 10 | 0% |  |  |  |
| CC(C)c1ccc2oc3nc(N)c(C(=O)O)cc3c(=O)c2c1 [AMLEXANOX] | > 10 | 0% | 4.03 |  |  |
| O=C1c2c(O)cc(O)cc2O[C@H](c2cc(O)c(O)c(O)c2)[C@H]1O [AMPELOPSIN] | > 10 | 18% |  |  |  |
| O=c1cc(-c2ccc(O)cc2)oc2cc(O)cc(O)c12 [APIGENIN] | > 10 | 17% |  |  |  |
| CN1CCc2cccc3c2[C@H]1Cc1ccc(O)c(O)c1-3 [APOMORPHINE HYDROCHLORIDE] | > 10 | 6% |  |  |  |
| O=c1cc(-c2ccccc2)oc2cc(O)c(O)c(O)c12 [BAICALEIN] | > 10 | 47% |  |  |  |
| CC(C)(C)c1ccc(S(=O)(=O)/C=C/C#N)cc1 [BAY-11-7085] | > 10 | 0% |  |  |  |
| NC(CO)C(=O)NNCc1ccc(O)c(O)c1O (centres undefined) [BENSERAZIDE HYDROCHLORIDE] | > 10 | 9% | 0.39 |  |  |
| CN(C)C(=S)SC(=S)N(C)C [BIS(DIMETHYLAMINETHIOCARBONYL)MONOSULFIDE] | > 10 | 0% |  |  |  |
| O=[N+]([O-])C(Br)(CO)CO [BRONOPOL] | > 10 | 14% |  |  |  |
| O=C1C2CC=CCC2C(=O)N1SC(Cl)(Cl)Cl (centres undefined) [CAPTAN] | > 10 | 5% |  |  |  |
| CNC(=O)ON(C(C)=O)C(=O)NC [CARACEMIDE] | > 10 | 8% |  |  |  |
| Oc1cc2c(cc1O)[C@H]1c3ccccc3CN[C@@H]1CC2 [DIHYDREXIDINE HYDROCHLORIDE] | > 10 | 19% |  |  |  |
| O=c1c2ccccc2[se]n1-c1ccccc1 [EBSELEN] | > 10 | 14% |  |  |  |
| O=C(O[C@@H]1Cc2c(O)cc(O)cc2O[C@@H]1c1cc(O)c(O)c(O)c1)c1cc(O)c(O)c(O)c1 [EPIGALOCATECHIN GALLATE] | > 10 | 10% and 16% | -0.5 |  |  |

| Molecule | IC50 [1] [µM] | inhibition [2] | inhibition [3] [%] | inhibition ([2]; tested as the Zn salt or complex) [%] | IC50 ([1]; tested as the Ag salt or complex) [µM] |
| --- | --- | --- | --- | --- | --- |
| O=C(c1cc(O)c(O)c(O)c1)c1ccc(O)c(O)c1O [EXIFONE] | > 10 | 0% |  |  |  |
| Oc1cc2c(cc1O)[C@@H]1c3ccc(O)c(O)c3OC[C@]1(O)C2 [HEMATOXYLIN] | > 10 | 5% |  |  |  |
| O=C(O)CCCCCCCCCCCCCCc1ccc(I)cc1 [IOCANLIDIC ACID] | > 10 | 0% |  |  |  |
| O=C(c1ccc(/C=C/c2n[nH]c3ccccc23)cc1)N1CCNCC1 [KW-2449] | 3.6 |  | 3.6 |  |  |
| C[C@H]1COc2c(N3CCN(C)CC3)c(F)cc3c(=O)c(C(=O)O)cn1c23 [LEVOFLOXACIN] | 7.6 |  | 1.29 |  |  |
| O=c1c(O)c(-c2cc(O)c(O)c(O)c2)oc2cc(O)cc(O)c12 [MYRICETIN] | > 10 | 5% | 3.78 |  |  |
| CC(Cc1ccc(O)c(O)c1)C(C)Cc1ccc(O)c(O)c1 (centres undefined) [NORDIHYDROGUAIARETIC ACID] | > 10 | 0% |  |  |  |
| Oc1cc(O)cc(/C=C/c2ccc(O)c(O)c2)c1 [PICEATANNOL] | > 10 | 24% |  |  |  |
| CCC(C)SSc1ncc[nH]1 (centres undefined) [PX-12] | 7.6 |  |  |  |  |
| COCCCOc1ccnc(C[S+]([O-])c2nc3ccccc3[nH]2)c1C (centres undefined) [RABEPRAZOLE SODIUM] | > 10 | 46% |  |  |  |
| O=C(/C=C/c1ccc(O)c(O)c1)O[C@H](Cc1ccc(O)c(O)c1)C(=O)O [ROSMARINIC ACID] | > 10 | 19% |  |  |  |
| C[n+]1cc2c3c(ccc2c2ccc4cc5c(cc4c21)OCO5)OCO3 [SANGUINARIUM CHLORIDE] | > 10 | 32% |  |  |  |
| Nc1ccc(S(=O)(=O)Nc2ncccn2)cc1 [SULFADIAZINE, SILVER] |  |  |  |  | > 10 |
| COc1ccc2[nH]c([S+]([O-])Cc3ncc(C)c(OC)c3C)nc2n1 (centres undefined) [TENATOPRAZOLE] | > 10 | 0% |  |  |  |
| CN(C)C(=S)SSC(=S)N(C)C [THIRAM] | > 10 | 48% |  |  |  |
| COc1cc(C(=S)N2CCOCC2)ccc1O [VANITIOLIDE] | > 10 | 0% |  |  |  |
| ACRIFLAVINE HYDROCHLORIDE |  |  | 22 |  |  |
| Auranofin |  | 27% | 8.63 |  |  |
| MERBROMIN |  | 0% | 10.5 |  |  |
| PHENYLMERCURIC ACETATE |  | 4% | 8.59 |  |  |
| THIMEROSAL [listing 1 of 2 here] | > 10 |  |  |  |  |
| THIMEROSAL [listing 2 of 2 here] |  | 46% |  |  |  |
| hemin |  | 7% | 6.35 |  |  |
